Experiments:
[1] = system: phosphorylated α-synuclein (p-α-Syn); test: Western blot of p-α-Syn in cortical tissue lysates, Syn^Tg mice; format: in vivo; conditions: EHT 12 mg/kg/day and/or caffeine 50 mg/kg/day until six months of age, vs untreated Syn^Tg mice
From the text: (§1) Thy1-α-synuclein transgenic mice (Syn^Tg) on BDF1 background overexpressing human wild-type α-synuclein under the control of the Thy1 promoter were maintained by mating heterozygous transgenic females with WT BDF1 males (Rockenstein E, et al. (2002) Differential neuropathological alterations in transgenic mice expressing alpha-synuclein from the platelet-derived growth factor and Thy-1 promoters. J Neurosci Res 68(5):568-578). BDF1 mice (mixed C57BL/6-DBA/2) were generated every three months by mating female C57BL/6 (The Jackson Laboratory) and male DBA/2 mice (Charles River). Experiments were performed with male transgenic mice and their WT littermates. […] Wild-type littermates received regular water and control chow. […] At two months of age, mice were inoculated with α-Syn PFF unilaterally in the striatum. These treatments continued throughout the experiment until animals were sacrificed. Mice were weighed and their food and water intake was quantified weekly. […]
Human neuroblastoma SH-SY5Y cells were cultured in DMEM-F12 with 10% FBS. […] Protein concentration was determined by bicinchonic acid (BCA) method (Pierce), equal amount of protein was separated on 5-20% SDS-PAGE gel (Genescript) and transferred to nitrocellulose or PVDF membrane (Biorad). […]

c-fos = test: Immunohistochemical staining of c-fos in the hippocampus, Syn^Tg mice; format: in vivo; conditions: EHT 12 mg/kg/day and/or caffeine 50 mg/kg/day until six months of age
From the text: as §1
(§2) Vectastain elite ABC kit (Vector Laboratories, Burlingame, Calif.) and 3,3′-diaminobenzidine (Sigma-Aldrich) were used for amplifying and color development. […] For other stains, the whole microscopic field was analyzed. For p-α-Syn stains in the cortex, four matching regions in each of two sections per animal were counted.

GFAP = test: Immunohistochemical staining of GFAP in the cortex, Syn^Tg mice; format: in vivo; conditions: EHT 12 mg/kg/day and/or caffeine 50 mg/kg/day until six months of age
From the text: Neuroinflammation is one of the neuropathological features of PD and models of α-synucleinopathy including Syn^Tg mice (Lee K W, et al. (2011) Enhanced phosphatase activity attenuates alpha-synucleinopathy in a mouse model. J Neurosci 31(19):6963-6971).
Thy1-α-synuclein transgenic mice (Syn^Tg) on BDF1 background overexpressing human wild-type α-synuclein under the control of the Thy1 promoter were maintained by mating heterozygous transgenic females with WT BDF1 males (Rockenstein E, et al. (2002) Differential neuropathological alterations in transgenic mice expressing alpha-synuclein from the platelet-derived growth factor and Thy-1 promoters. J Neurosci Res 68(5):568-578). BDF1 mice (mixed C57BL/6-DBA/2) were generated every three months by mating female C57BL/6 (The Jackson Laboratory) and male DBA/2 mice (Charles River). Experiments were performed with male transgenic mice and their WT littermates. […] Wild-type littermates received regular water and control chow. […] Mice were weighed and their food and water intake was quantified weekly. […]
as §2

dopamine = test: Striatal dopamine content by HPLC-MS, α-Syn PFF inoculated WT mice; format: in vivo; conditions: each compound alone, EHT 12 mg/kg/day or caffeine 50 mg/kg/day, vs untreated α-Syn PFF inoculated mice
From the text: as §1, with “weekly. Animals were housed 2-5/cage in an AAALAC approved facility in a temperature- and humidity-controlled environment under a 12-hour light/dark cycle and were maintained on a diet of lab chow and water ad libitum.” for “weekly.”

[2] = system: TH positive dopaminergic neurons of the substantia nigra; test: Nigral TH positive neuron count, α-Syn PFF inoculated WT mice; format: in vivo; conditions: each compound individually, PFF alone reduced neurons by 51% vs PBS
From the text: as §1, with “weekly. Animals were housed 2-5/cage in an AAALAC approved facility in a temperature- and humidity-controlled environment under a 12-hour light/dark cycle and were maintained on a diet of lab chow and water ad libitum.” for “weekly.”

p-α-Syn = test: Western blot of p-α-Syn in SH-SY5Y cells challenged with α-Syn PFF; format: cell-based, Human; conditions: SH-SY5Y cells challenged with mouse α-Syn PFF for 7 days; caffeine and/or EHT added to the medium
Procedure: Human neuroblastoma SH-SY5Y cells were cultured in DMEM-F12 with 10% FBS. At 50% confluency, cells were treated with 1 gg/ml mouse α-Syn PFF in DMEM-F12 with 1% FBS for 7 days. Medium was refreshed every 3 days. Cell harvesting was done with 2% SDS in PBS supplemented with protease inhibitor (Millipore) and phosphatase inhibitor (Sigma-Aldrich). Lysates were sonicated and boiled at 95° C. for 5 minutes. Protein concentration was determined by bicinchonic acid (BCA) method (Pierce), equal amount of protein was separated on 5-20% SDS-PAGE gel (Genescript) and transferred to nitrocellulose or PVDF membrane (Biorad). Following transfer, membranes were blocked for 1 hour at room temperature in blocking buffer (Li-Cor) or 5% (w/v) BSA/TBS-Tween 0.1% (v/v). Primary antibodies were diluted in blocking buffer or 5% (w/v) BSA/TBS-Tween 0.1% (v/v) and incubated with the membranes at 4° C. overnight. Membranes were washed three times in TBS-Tween and incubated in diluted IRDye 800CW or HRP conjugated secondary antibody for 1 hour at room temperature. Following washing, membranes were scanned by Li-Cor Odyssey CLx infrared imaging system or treated with the Western Lightning ECL-plus reagents (PerkinElmer) and exposed to autoradiography films (LabScientific).

SMILES: CCCCCCCCCCCCCCCCCCCC(=O)NCCc1c[nH]c2ccc(O)cc12 [EHT, eicosanoyl-5-hydroxytryptamide]
- p-α-Syn levels by Western blot, cortical tissue lysates [1]: no significant effect
- c-fos immunoreactivity in the hippocampus (c-fos): failed to increase c-fos immunoreactivity significantly
- astrocytic proliferation (GFAP) in the cortex (GFAP): partially but insignificantly attenuated
- dopamine (DA) content in lysates of the ipsilateral striatum, benefit in words (dopamine): did not have a significant benefit
- prevention of the reduction of TH positive dopaminergic neurons of the substantia nigra [2]: did not prevent this reduction
- p-α-Syn levels (p-α-Syn): reduced it partially

Source: patent publication US20210369720A1, “SYNERGISTIC COMPOSITION HAVING NEUROPROTECTIVE PROPERTIES AND METHODS OF USE THEREOF” (Rutgers, The State University of New Jersey, priority 2018, published 2021)
